Results reported in US9315520B2, “2-amino-6-methyl-4,4a,5,6-tetrahydropyrano[3,4-d][1,3]thiazin-8a(8H)-yl-1,3-thiazol-4-yl amides” (Pfizer Inc., priority 2014, dated 2016).
Structures can show the parent of a compound that is named as a salt.

Target: BACE1 (Homo sapiens (Human), UniProt P56817)
Assay: BACE1 Cell-Free Assay (fluorescence polarization)
Format: biochemical
Settings: geometric mean of 2-4 determinations unless otherwise indicated (b: ≧5; c: single determination); read-out: BACE1 Cell-free Assay IC50

Chain of BACE1 (P56817 46-457): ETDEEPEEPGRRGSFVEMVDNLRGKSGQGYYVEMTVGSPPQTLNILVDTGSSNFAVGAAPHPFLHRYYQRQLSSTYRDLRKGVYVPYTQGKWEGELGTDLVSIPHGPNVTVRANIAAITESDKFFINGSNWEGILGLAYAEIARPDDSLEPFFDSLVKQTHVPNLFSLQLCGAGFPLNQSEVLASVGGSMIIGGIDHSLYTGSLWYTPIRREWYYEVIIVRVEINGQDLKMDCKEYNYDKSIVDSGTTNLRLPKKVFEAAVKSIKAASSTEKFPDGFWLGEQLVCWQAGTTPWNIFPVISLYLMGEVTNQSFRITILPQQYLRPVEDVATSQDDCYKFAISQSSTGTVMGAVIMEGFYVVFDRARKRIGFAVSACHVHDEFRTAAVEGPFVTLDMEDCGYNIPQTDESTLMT

Row | SMILES | IC50
1 | C[C@H]1C[C@H]2CSC(N)=N[C@@]2(c2nc(NC(=O)c3ccnn3C3CC3)cs2)CO1 [Example 85, N-{2-[(4aR,6S,8aR)-2-amino-6-methyl-4,4a,5,6-tetrahydropyrano[3,4-d][1,3]thiazin-8a(8H)-yl]-1,3-thiazol-4-yl}-1-cyclopropyl-1H-pyrazole-5-carboxamide, formate salt] | 4240 nM
2 | C[C@H]1C[C@H]2CSC(N)=N[C@@]2(c2nc(NC(=O)c3ccn(CC(F)F)n3)cs2)CO1 [Example 87, N-{2-[(4aR,6S,8aR)-2-amino-6-methyl-4,4a,5,6-tetrahydropyrano[3,4-d][1,3]thiazin-8a(8H)-yl]-1,3-thiazol-4-yl}-1-(2,2-difluoroethyl)-1H-pyrazole-3-carboxamide] | 398 nM
3 | COCCn1ccc(C(=O)Nc2csc([C@]34CO[C@@H](C)C[C@H]3CSC(N)=N4)n2)n1 [Example 88, N-{2-[(4aR,6S,8aR)-2-amino-6-methyl-4,4a,5,6-tetrahydropyrano[3,4-d][1,3]thiazin-8a(8H)-yl]-1,3-thiazol-4-yl}-1-(2-methoxyethyl)-1H-pyrazole-3-carboxamide] | 418 nM
4 | C#CCn1ccc(C(=O)Nc2csc([C@]34CO[C@@H](C)C[C@H]3CSC(N)=N4)n2)n1 [Example 89, N-{2-[(4aR,6S,8aR)-2-amino-6-methyl-4,4a,5,6-tetrahydropyrano[3,4-d][1,3]thiazin-8a(8H)-yl]-1,3-thiazol-4-yl}-1-(prop-2-yn-1-yl)-1H-pyrazole-3-carboxamide] | 17 nM
5 | C[C@H]1C[C@H]2CSC(N)=N[C@@]2(c2nc(NC(=O)C3CCC3)cs2)CO1 [Example 93, N-{2-[(4aR,6S,8aR)-2-amino-6-methyl-4,4a,5,6-tetrahydropyrano[3,4-d][1,3]thiazin-8a(8H)-yl]-1,3-thiazol-4-yl}cyclobutanecarboxamide] | 376 nM
6 | C[C@H]1C[C@H]2CSC(N)=N[C@@]2(c2nc(NC(=O)c3ncc(OC(F)F)cn3)cs2)CO1 [Example 97, N-{2-[(4aR,6S,8aR)-2-amino-6-methyl-4,4a,5,6-tetrahydropyrano[3,4-d][1,3]thiazin-8a(8H)-yl]-1,3-thiazol-4-yl}-5-(difluoromethoxy)pyrimidine-2-carboxamide] | 177 nM
7 | C[C@H]1C[C@H]2CSC(N)=N[C@@]2(c2nc(NC(=O)c3ccc(OCC#N)cn3)cs2)CO1 [Example 101, N-{2-[(4aR,6S,8aR)-2-amino-6-methyl-4,4a,5,6-tetrahydropyrano[3,4-d][1,3]thiazin-8a(8H)-yl]-1,3-thiazol-4-yl}-5-(cyanomethoxy)pyridine-2-carboxamide] | 447 nM
8 | Cc1oc(CF)nc1C(=O)Nc1csc([C@]23CO[C@@H](C)C[C@H]2CSC(N)=N3)n1 [Example 102, N-{2-[(4aR,6S,8aR)-2-amino-6-methyl-4,4a,5,6-tetrahydropyrano[3,4-d][1,3]thiazin-8a(8H)-yl]-1,3-thiazol-4-yl}-2-(fluoromethyl)-5-methyl-1,3-oxazole-4-carboxamide] | 12 nM
9 | CCC(F)(F)Oc1ccc(C(=O)Nc2csc([C@]34CO[C@@H](C)C[C@H]3CSC(N)=N4)n2)nc1 [Example 104, N-{2-[(4aR,6S,8aR)-2-amino-6-methyl-4,4a,5,6-tetrahydropyrano[3,4-d][1,3]thiazin-8a(8H)-yl]-1,3-thiazol-4-yl}-5-(1,1-difluoropropoxy)pyridine-2-carboxamide] | 308 nM

The remaining compounds from weak to strong by IC50, led by results:

Row | IC50 | SMILES
10 | 16200 nM | CC(C)c1nc(C(=O)Nc2csc([C@]34CO[C@@H](C)C[C@H]3CSC(N)=N4)n2)co1 [Example 86, N-{2-[(4aR,6S,8aR)-2-amino-6-methyl-4,4a,5,6-tetrahydropyrano[3,4-d][1,3]thiazin-8a(8H)-yl]-1,3-thiazol-4-yl}-2-(propan-2-yl)-1,3-oxazole-4-carboxamide]
11 | 282 nM | COCC(F)(F)c1ccc(C(=O)Nc2csc([C@]34CO[C@@H](C)C[C@H]3CSC(N)=N4)n2)nc1 [Example 103, N-{2-[(4aR,6S,8aR)-2-amino-6-methyl-4,4a,5,6-tetrahydropyrano[3,4-d][1,3]thiazin-8a(8H)-yl]-1,3-thiazol-4-yl}-5-(1,1-difluoro-2-methoxyethyl)pyridine-2-carboxamide]
12 | 220 nM | COCC(F)(F)c1cnc(C(=O)Nc2csc([C@]34CO[C@@H](C)C[C@H]3CSC(N)=N4)n2)cn1 [Example 100, N-{2-[(4aR,6S,8aR)-2-amino-6-methyl-4,4a,5,6-tetrahydropyrano[3,4-d][1,3]thiazin-8a(8H)-yl]-1,3-thiazol-4-yl}-5-(1,1-difluoro-2-methoxyethyl)pyrazine-2-carboxamide]
13 | 215 nM | C[C@H]1C[C@H]2CSC(N)=N[C@@]2(c2nc(NC(=O)c3coc(CC(F)(F)F)n3)cs2)CO1 [Example 91, N-{2-[(4aR,6S,8aR)-2-amino-6-methyl-4,4a,5,6-tetrahydropyrano[3,4-d][1,3]thiazin-8a(8H)-yl]-1,3-thiazol-4-yl}-2-(2,2,2-trifluoroethyl)-1,3-oxazole-4-carboxamide]
14 | 175 nM | COCc1nc(C(=O)Nc2csc([C@]34CO[C@@H](C)C[C@H]3CSC(N)=N4)n2)co1 [Example 90, N-{2-[(4aR,6S,8aR)-2-amino-6-methyl-4,4a,5,6-tetrahydropyrano[3,4-d][1,3]thiazin-8a(8H)-yl]-1,3-thiazol-4-yl}-2-(methoxymethyl)-1,3-oxazole-4-carboxamide]
15 | 75 nM | C[C@H]1C[C@H]2CSC(N)=N[C@@]2(c2nc(NC(=O)c3nc(C(F)F)co3)cs2)CO1 [Example 95, N-{2-[(4aR,6S,8aR)-2-amino-6-methyl-4,4a,5,6-tetrahydropyrano[3,4-d][1,3]thiazin-8a(8H)-yl]-1,3-thiazol-4-yl}-4-(difluoromethyl)-1,3-oxazole-2-carboxamide]
16 | 33 nM | Cc1nc(OC(F)F)cnc1C(=O)Nc1csc([C@]23CO[C@@H](C)C[C@H]2CSC(N)=N3)n1 [Example 98, N-{2-[(4aR,6S,8aR)-2-amino-6-methyl-4,4a,5,6-tetrahydropyrano[3,4-d][1,3]thiazin-8a(8H)-yl]-1,3-thiazol-4-yl}-5-(difluoromethoxy)-3-methylpyrazine-2-carboxamide]
17 | 25 nM | C[C@H]1C[C@H]2CSC(N)=N[C@@]2(c2nc(NC(=O)c3ncc(OC(F)F)cc3Cl)cs2)CO1 [Example 99, N-{2-[(4aR,6S,8aR)-2-amino-6-methyl-4,4a,5,6-tetrahydropyrano[3,4-d][1,3]thiazin-8a(8H)-yl]-1,3-thiazol-4-yl}-3-chloro-5-(difluoromethoxy)pyridine-2-carboxamide]
18 | 18 nM | CC#CCOc1ccc(C(=O)Nc2csc([C@]34CO[C@@H](C)C[C@H]3CSC(N)=N4)n2)nc1 [Example 94, N-{2-[(4aR,6S,8aR)-2-amino-6-methyl-4,4a,5,6-tetrahydropyrano[3,4-d][1,3]thiazin-8a(8H)-yl]-1,3-thiazol-4-yl}-5-(but-2-yn-1-yloxy)pyridine-2-carboxamide]
19 | 2 nM | Cc1cn(C(F)F)nc1C(=O)Nc1csc([C@]23CO[C@@H](C)C[C@H]2CSC(N)=N3)n1 [Example 96, N-{2-[(4aR,6S,8aR)-2-amino-6-methyl-4,4a,5,6-tetrahydropyrano[3,4-d][1,3]thiazin-8a(8H)-yl]-1,3-thiazol-4-yl}-1-(difluoromethyl)-4-methyl-1H-pyrazole-3-carboxamide]
